In US4206235A, “Novel 2,5-dihalophenyl-β-substituted sulfone fungicides” (priority 1976, dated 1980):
In brackets after ≈: the same amount, converted by molar mass. Several values for one entry are separate records, joined by “and”; a condition that tells them apart may be missing. Equal values may be shown once.

Legend:
[1] = test system: mixed spore suspension of Aspergillus flavus, Aspergillus niger, Paecilomyces varioti, Penicillium funiculosum, Trichoderma viride, Alternaria tenuis …; assay: Weight Loss Test of PVC sheeting; conditions: 14 days at 28° C.; for % weight loss: single strip
Trichoderma viride = assay: Halo test on plasticized PVC sheeting; assay type: cell-based; set-up: key to growth under the test sample (GUS): +: no reduction in growth; ±: slight reduction in growth; .-+.: moderate reduction in growth; -: complete reduction in growth
[2] = test system: Cladosporium cladosporoides; assay: Halo test on plasticized PVC sheeting; assay type: cell-based; set-up: key to growth under the test sample (GUS): +: no reduction in growth; ±: slight reduction in growth; .-+.: moderate reduction in growth; -: complete reduction in growth
common moulds = assay: Activity against common moulds on plasticized PVC sheets; assay type: cell-based
Sclerotinia rolfsil = assay: Fungitoxicity in culture media (agar), growth inhibition; assay type: cell-based; conditions: 50% inhibition of growth, read-out: ED50 (the source's name)
Experimental: (§1) Acetone solutions of the compound were mixed with an aliquot of distilled water and the fine suspension obtained was mixed with cooled but melted agar medium and poured into Petri dishes.
(§2) The tested fungi were grown on the solidified media. Growth of the fungus was measured and percent inhibition was calculated by comparing with the appropriate acetone-water controls. Media were usually Martin's or potato-dextrose agar media.
(§3) ED50 = effective dose, sufficient for the 50% inhibition of growth of the fungus, expressed in p.p.m.

Pythium aphanidermatum = assay: as above; assay type: cell-based; conditions: 50% inhibition of growth, read-out: ED50 (the source's name)
Experimental: as §1, §2, §3

Rhizopus stolonifer = assay: as above; assay type: cell-based; conditions: 50% inhibition of growth, read-out: ED50 (the source's name)
Experimental: as §1, §2, §3

Rhizoctonia bataticola = assay: as above; assay type: cell-based; conditions: Macrophomina phaseolina, 50% inhibition of growth, read-out: ED50 (the source's name)
Experimental: as §1, §2, §3

Rhizoctonia solani = assay: as above; assay type: cell-based; conditions: 50% inhibition of growth, read-out: ED50 (the source's name)
Experimental: as §1, §2, §3

[3] = test system: Fusarium oxysporum sp. f.lycopersici; assay: as above; assay type: cell-based; conditions: 50% inhibition of growth, read-out: ED50 (the source's name)
Experimental: as §1, §2, §3

Paecilomyces varioti [4] = assay: Halo test on plasticized PVC sheeting; assay type: cell-based; set-up: key to growth under the test sample (GUS): +: no reduction in growth; ±: slight reduction in growth; .-+.: moderate reduction in growth; -: complete reduction in growth
Penicillium funiculosum = assay: Halo test on plasticized PVC sheeting; assay type: cell-based; set-up: key to growth under the test sample (GUS): +: no reduction in growth; ±: slight reduction in growth; .-+.: moderate reduction in growth; -: complete reduction in growth
Paecilomyces varioti [5] = assay: Agar incorporation test; assay type: cell-based; conditions: 120 h, 5 days at 28° C., P. varioti
Experimental: (§4) Pure cultures of fungi Paecilomyces varioti, Cladosporium cladosporides, Penicillium funivulosum, and Aspergillus niger were exposed to a range of dilutions of the compound viz: 10,000, 3,000, 1,000, 600, 300, 100, 30, 10, 1 ppm incorporated into agar via […]. The fungal plates were incubated for 5 days at 28° C. The plates were then assessed for either the presence or absence of growth and the minimum inhibitory concentration (MIC) in ppm recorded.

Aspergillus niger [6] = assay: Agar incorporation test; assay type: cell-based; conditions: 120 h, 5 days at 28° C., A. niger
Experimental: as §4

[7] = test system: Cladosporium cladosporides; assay: Agar incorporation test; assay type: cell-based; conditions: 120 h, 5 days at 28° C.
Experimental: as §4

Aspergillus niger [8] = assay: Halo test on plasticized PVC sheeting; assay type: cell-based; set-up: key to growth under the test sample (GUS): +: no reduction in growth; ±: slight reduction in growth; .-+.: moderate reduction in growth; -: complete reduction in growth
Alternaria tenuis = assay: Halo test on plasticized PVC sheeting; assay type: cell-based; set-up: key to growth under the test sample (GUS): +: no reduction in growth; ±: slight reduction in growth; .-+.: moderate reduction in growth; -: complete reduction in growth; conditions: for Zone of growth inhibition (halo): brackets = growth partially suppressed
Penicillium funivulosum = assay: Agar incorporation test; assay type: cell-based; conditions: 120 h, 5 days at 28° C., P. funiculosum
Experimental: The fungal plates were incubated for 5 days at 28° C. The plates were then assessed for either the presence or absence of growth and the minimum inhibitory concentration (MIC) in ppm recorded.

Aspergillus flavus = assay: Halo test on plasticized PVC sheeting; assay type: cell-based; set-up: key to growth under the test sample (GUS): +: no reduction in growth; ±: slight reduction in growth; .-+.: moderate reduction in growth; -: complete reduction in growth
two-spotted mite = assay: Activity against the two-spotted mite
[9] = 0.5% in PVC sheeting, brackets = growth partially suppressed

SMILES: COC(=O)C(Cl)CS(=O)(=O)c1cc(Cl)ccc1Cl (stereo not drawn) [Example 3, 2,5-dichlorophenyl-β-carboxymethyl-β'-chloroethyl sulfone]
- Mean % loss as plasticizer ([1]; 0.5%): 1.8%
- Mean % weight loss ([1]; 0.5%): 0.6%
- % weight loss ([1]; 0.5%): 0.7% and 0.6% and 0.4% and 0.5%
- Mean % loss as plasticizer ([1]; 1.0%): 0.6%
- Mean % weight loss ([1]; 1.0%): 0.2%
- % weight loss ([1]; 1.0%): 0.4% and 0.1% and 0.01% and 0.2%
- Zone of growth inhibition (halo) (Trichoderma viride; 0.5% in PVC sheeting): 2 millimetres
- growth under the test sample (GUS) (Trichoderma viride; 0.5% in PVC sheeting): .-+.
- Zone of growth inhibition (halo) (Trichoderma viride; 1% in PVC sheeting): 5 millimetres
- growth under the test sample (GUS) (Trichoderma viride; 1% in PVC sheeting): .-+.
- growth under the test sample (GUS) ([2]; 0.5% in PVC sheeting): -
- Zone of growth inhibition (halo) [2, 9]: 4 millimetres
- Zone of growth inhibition (halo) ([2]; 1% in PVC sheeting): 9 millimetres
- growth under the test sample (GUS) ([2]; 1% in PVC sheeting): -
- inhibition of the growth of common moulds on PVC sheets (common moulds; 0.5% by weight, PVC plasticized with 30% dialkyl sebacate): Complete inhibition
- inhibition of fungi (common moulds; 0.5% in sheeting, halo test, seven fungi): all fungi were inhibited
- inhibition of fungal attack (common moulds; 0.5 and 1.0% in sheeting): virtual complete inhibition of fungal attack
- degree of inhibition against the seven fungi (common moulds; 1.0% in sheeting, halo test): good
- IC50 (Sclerotinia rolfsil): 50 µg/mL (≈ 151 µM)
- IC50 (Pythium aphanidermatum): > 50 µg/mL
- IC50 (Rhizopus stolonifer): > 50 µg/mL
- IC50 (Rhizoctonia bataticola): 50 µg/mL (≈ 151 µM)
- IC50 (Rhizoctonia solani): 20 µg/mL (≈ 60.3 µM)
- IC50 [3]: > 50 µg/mL
- Zone of growth inhibition (halo) (Paecilomyces varioti [4]; 0.5% in PVC sheeting): 5 millimetres
- growth under the test sample (GUS) (Paecilomyces varioti [4]; 0.5% in PVC sheeting): -
- Zone of growth inhibition (halo) (Paecilomyces varioti [4]; 1% in PVC sheeting): 10 millimetres
- growth under the test sample (GUS) (Paecilomyces varioti [4]; 1% in PVC sheeting): -
- growth under the test sample (GUS) (Penicillium funiculosum; 0.5% in PVC sheeting): -
- Zone of growth inhibition (halo) (Penicillium funiculosum; [9]): 4 millimetres
- Zone of growth inhibition (halo) (Penicillium funiculosum; 1% in PVC sheeting): 8 millimetres
- growth under the test sample (GUS) (Penicillium funiculosum; 1% in PVC sheeting): -
- MIC (Paecilomyces varioti [5]): 100 µg/mL (≈ 302 µM)
- MIC (Aspergillus niger [6]): 100 µg/mL (≈ 302 µM)
- MIC [7]: 100 µg/mL (≈ 302 µM)
- growth under the test sample (GUS) (Aspergillus niger [8]; 0.5% in PVC sheeting): -
- Zone of growth inhibition (halo) (Aspergillus niger [8]; [9]): 2 millimetres
- Zone of growth inhibition (halo) (Aspergillus niger [8]; 1% in PVC sheeting): 6 millimetres
- growth under the test sample (GUS) (Aspergillus niger [8]; 1% in PVC sheeting): -
- growth under the test sample (GUS) (Alternaria tenuis; 0.5% in PVC sheeting): -
- Zone of growth inhibition (halo) (Alternaria tenuis; 0.5% in PVC sheeting): 5 millimetres
- growth under the test sample (GUS) (Alternaria tenuis; 1% in PVC sheeting): -
- Zone of growth inhibition (halo) (Alternaria tenuis; 1% in PVC sheeting): 10 millimetres
- MIC (Penicillium funivulosum): 30 µg/mL (≈ 90.5 µM)
- Zone of growth inhibition (halo) (Aspergillus flavus; 0.5% in PVC sheeting): 1 millimetres
- growth under the test sample (GUS) (Aspergillus flavus; 0.5% in PVC sheeting): .-+.
- Zone of growth inhibition (halo) (Aspergillus flavus; 1% in PVC sheeting): 1 millimetres
- growth under the test sample (GUS) (Aspergillus flavus; 1% in PVC sheeting): .-+.

SMILES: O=S(=O)(C=C(Cl)Cl)c1cc(Cl)ccc1Cl [Example 4, 2,5-dichlorophenyl-β, β-dichlorovinyl sulfone]
- IC50 (Sclerotinia rolfsil): 10 µg/mL (≈ 32.7 µM)
- IC50 (Pythium aphanidermatum): 1 µg/mL (≈ 3.27 µM)
- IC50 (Rhizoctonia bataticola): 5 µg/mL (≈ 16.3 µM)
- IC50 (Rhizoctonia solani): 5 µg/mL (≈ 16.3 µM)
- IC50 [3]: 5 µg/mL (≈ 16.3 µM)
- activity against the two-spotted mite (two-spotted mite): strong activity
